In PMC5218480 (PLoS ONE, 2017):

System: MV-4-11 cells
Assay: Gene expression microarray analysis (Affymetrix PrimeView) and GSEA
Assay type: cell-based, human
Parameters: RFU PODN (11730768_x_at) / Fold change /veh PODN (11730768_x_at) / RFU LINC00158 (11744669_a_at) / Fold change /veh LINC00158 (11744669_a_at) / RFU DUSP10 (11751237_a_at) / Fold change /veh DUSP10 (11751237_a_at) / RFU ID3 (11757404_x_at) / Fold change /veh ID3 (11757404_x_at) / RFU PLEKHG5 (11737974_s_at) / Fold change /veh PLEKHG5 (11737974_s_at) / RFU LRRC4B (11730491_at) / Fold change /veh LRRC4B (11730491_at) / RFU GIMAP4 (11747438_a_at) / Fold change /veh GIMAP4 (11747438_a_at) / RFU KRT8 (11758183_x_at) / Fold change /veh KRT8 (11758183_x_at) / RFU CNN1 (11734310_a_at) / Fold change /veh CNN1 (11734310_a_at) / RFU VPS37D (11726825_at) / Fold change /veh VPS37D (11726825_at) / RFU C10orf10 (11716522_x_at) / Fold change /veh C10orf10 (11716522_x_at) / RFU KIR2DL2 /// KIR2DL4 /// KIR2DL5A /// KIR2DL5B /// KIR2DS1 /// KIR2DS2 /// KIR2DS3 /// KIR2DS4 /// KIR3DL3 /// KIR3DL3 /// KIR3DS1 (11738374_at) / Fold change /veh KIR2DL2 /// KIR2DL4 /// KIR2DL5A /// KIR2DL5B /// KIR2DS1 /// KIR2DS2 /// KIR2DS3 /// KIR2DS4 /// KIR3DL3 /// KIR3DL3 /// KIR3DS1 (11738374_at) / RFU C1QL1 (11718748_at) / Fold change /veh C1QL1 (11718748_at) / RFU TMPRSS4 (11747572_a_at) / Fold change /veh TMPRSS4 (11747572_a_at) / RFU HAMP (11756126_x_at) / Fold change /veh HAMP (11756126_x_at) / RFU RNFT2 (11725882_a_at) / Fold change /veh RNFT2 (11725882_a_at) / RFU NR4A2 (11747474_a_at) / Fold change /veh NR4A2 (11747474_a_at) / RFU ABCC12 (11746883_a_at) / Fold change /veh ABCC12 (11746883_a_at) / RFU TMEM136 (11760407_x_at) / Fold change /veh TMEM136 (11760407_x_at) / RFU CLDN22 /// WWC2 (11732394_at) / Fold change /veh CLDN22 /// WWC2 (11732394_at) / RFU HLA-DPB1 (11760878_x_at) / Fold change /veh HLA-DPB1 (11760878_x_at) / RFU SPINT1 (11716480_a_at) / Fold change /veh SPINT1 (11716480_a_at) / RFU GAP43 (11754022_s_at) / Fold change /veh GAP43 (11754022_s_at) / RFU A4GNT (11735810_at) / Fold change /veh A4GNT (11735810_at) / RFU PRB3 (11715151_x_at) / Fold change /veh PRB3 (11715151_x_at) / RFU TUBB4B (11761932_at) / Fold change /veh TUBB4B (11761932_at) / RFU CAPN14 (11732068_a_at) / Fold change /veh CAPN14 (11732068_a_at) / RFU TMCC2 (11721928_a_at) / Fold change /veh TMCC2 (11721928_a_at) / RFU IRGQ (11745062_a_at) / Fold change /veh IRGQ (11745062_a_at) / RFU FAM174B (11720279_a_at) / Fold change /veh FAM174B (11720279_a_at) / RFU TMPRSS4 (11748680_a_at) / Fold change /veh TMPRSS4 (11748680_a_at) / RFU FAM212B (11763350_a_at) / Fold change /veh FAM212B (11763350_a_at) / RFU PLEKHG5 (11743358_a_at) / Fold change /veh PLEKHG5 (11743358_a_at) / RFU ZSCAN30 (11745921_a_at) / Fold change /veh ZSCAN30 (11745921_a_at) / RFU CMKLR1 (11741424_a_at) / Fold change /veh CMKLR1 (11741424_a_at) / RFU LOC101060620 /// MAPK8IP1 (11723275_at) / Fold change /veh LOC101060620 /// MAPK8IP1 (11723275_at) / RFU SPTSSB (11747773_x_at) / Fold change /veh SPTSSB (11747773_x_at) / RFU PRSS12 (11739890_at) / Fold change /veh PRSS12 (11739890_at) / RFU BIN1 (11741810_x_at) / Fold change /veh BIN1 (11741810_x_at) / RFU WNT11 (11732464_a_at) / Fold change /veh WNT11 (11732464_a_at) / RFU C10orf10 (11716521_a_at) / Fold change /veh C10orf10 (11716521_a_at) / RFU C5orf56 (11738089_at) / Fold change /veh C5orf56 (11738089_at) / RFU CYB561 (11721691_x_at) / Fold change /veh CYB561 (11721691_x_at) / RFU ANKRD19P (11752326_a_at) / Fold change /veh ANKRD19P (11752326_a_at) / RFU OR2T12 /// OR2T33 /// OR2T8 (11738714_s_at) / Fold change /veh OR2T12 /// OR2T33 /// OR2T8 (11738714_s_at) / RFU VCAN (11748164_a_at) / Fold change /veh VCAN (11748164_a_at) / RFU JSRP1 (11732532_at) / Fold change /veh JSRP1 (11732532_at) / RFU KRTAP10-11 (11738290_x_at) / Fold change /veh KRTAP10-11 (11738290_x_at) / RFU MYO3A (11730013_a_at) / Fold change /veh MYO3A (11730013_a_at) / RFU EBF3 (11725865_a_at) / Fold change /veh EBF3 (11725865_a_at) / RFU CAMK2N1 (11719241_x_at) / Fold change /veh CAMK2N1 (11719241_x_at) / RFU C5orf56 (11738088_a_at) / Fold change /veh C5orf56 (11738088_a_at) / RFU OLFML3 (11715873_a_at) / Fold change /veh OLFML3 (11715873_a_at) / RFU LOC100653217 /// NTM (11731650_a_at) / Fold change /veh LOC100653217 /// NTM (11731650_a_at) / RFU MAPK11 (11762145_a_at) / Fold change /veh MAPK11 (11762145_a_at) / RFU FIZ1 (11724087_x_at) / Fold change /veh FIZ1 (11724087_x_at) / RFU OASL (11726364_x_at) / Fold change /veh OASL (11726364_x_at) / RFU SOX15 (11748057_x_at) / Fold change /veh SOX15 (11748057_x_at) / RFU CD79A (11719716_a_at) / Fold change /veh CD79A (11719716_a_at) / RFU HIST1H1D (11736915_at) / Fold change /veh HIST1H1D (11736915_at) / RFU CASKIN2 (11723855_a_at) / Fold change /veh CASKIN2 (11723855_a_at) / RFU LOC730098 (11760151_x_at) / Fold change /veh LOC730098 (11760151_x_at) / RFU OR4N2 (11742367_at) / Fold change /veh OR4N2 (11742367_at) / RFU PRRT2 (11749266_a_at) / Fold change /veh PRRT2 (11749266_a_at) / RFU SNX32 (11753110_a_at) / Fold change /veh SNX32 (11753110_a_at) / RFU CDHR5 (11726645_a_at) / Fold change /veh CDHR5 (11726645_a_at) / RFU RCAN1 (11760418_a_at) / Fold change /veh RCAN1 (11760418_a_at) / RFU FAM167A (11723789_a_at) / Fold change /veh FAM167A (11723789_a_at) / RFU FAM26E (11764081_at) / Fold change /veh FAM26E (11764081_at) / RFU ISYNA1 (11749810_s_at) / Fold change /veh ISYNA1 (11749810_s_at) / RFU ACY1 (11761880_at) / Fold change /veh ACY1 (11761880_at) / RFU 11764098_at / Fold change /veh 11764098_at / RFU SAMD14 (11745864_x_at) / Fold change /veh SAMD14 (11745864_x_at) / RFU NPB (11741838_a_at) / Fold change /veh NPB (11741838_a_at) / RFU TMPRSS6 (11731388_a_at) / Fold change /veh TMPRSS6 (11731388_a_at) / RFU KRTAP10-2 (11738614_at) / Fold change /veh KRTAP10-2 (11738614_at) / RFU ARHGAP8 /// PRR5-ARHGAP8 (11727945_x_at) / Fold change /veh ARHGAP8 /// PRR5-ARHGAP8 (11727945_x_at) / RFU KRTAP5-7 /// NADSYN1 (11734609_at) / Fold change /veh KRTAP5-7 /// NADSYN1 (11734609_at) / RFU RASL12 (11751679_a_at) / Fold change /veh RASL12 (11751679_a_at) / RFU CDKN2B (11736163_a_at) / Fold change /veh CDKN2B (11736163_a_at) / RFU PRF1 (11729649_at) / Fold change /veh PRF1 (11729649_at) / RFU, ZNF638 /// ZNF638-IT1 / Fold change vs veh, ZNF638 /// ZNF638-IT1 / RFU, PANK3 / Fold change vs veh, PANK3 / RFU, SH3YL1 / Fold change vs veh, SH3YL1 / RFU, ZEB2 / Fold change vs veh, ZEB2 / RFU, NRIP1 / Fold change vs veh, NRIP1 / RFU, PTTG1IP / Fold change vs veh, PTTG1IP / RFU, CAPN2 / Fold change vs veh, CAPN2 / RFU, MED14 / Fold change vs veh, MED14 / RFU, SNORA58 / Fold change vs veh, SNORA58 / RFU, C1orf63 / Fold change vs veh, C1orf63 / RFU, LRRFIP1 / Fold change vs veh, LRRFIP1 / RFU, NDUFAF7 / Fold change vs veh, NDUFAF7 / RFU, SLC12A2 / Fold change vs veh, SLC12A2 / RFU, IBTK / Fold change vs veh, IBTK / RFU, ESF1 / Fold change vs veh, ESF1 / Fold change vs veh, TMEM50B / RFU, TAOK1 / Fold change vs veh, TAOK1 / RFU, ACBD3 / Fold change vs veh, ACBD3 / RFU, TMA16 / Fold change vs veh, TMA16 / RFU, RWDD3 / Fold change vs veh, RWDD3 / RFU, BCAT1 / Fold change vs veh, BCAT1 / RFU, EDEM3 / Fold change vs veh, EDEM3 / RFU, TMEM33 / Fold change vs veh, TMEM33 / RFU, WDR75 / Fold change vs veh, WDR75 / RFU, AHCTF1 / Fold change vs veh, AHCTF1 / RFU, TFRC / Fold change vs veh, TFRC / RFU, ZDHHC17 / Fold change vs veh, ZDHHC17 / RFU, NOM1 / Fold change vs veh, NOM1 / RFU, ARL8B / Fold change vs veh, ARL8B / RFU, ZBTB11 / Fold change vs veh, ZBTB11 / RFU, TAMM41 / Fold change vs veh, TAMM41 / RFU, KIAA1704 /// LOC100996395 / Fold change vs veh, KIAA1704 /// LOC100996395 / RFU, ING1 / Fold change vs veh, ING1 / RFU, TRMT61B / Fold change vs veh, TRMT61B / RFU, FUBP3 / Fold change vs veh, FUBP3 / RFU, TP53 / Fold change vs veh, TP53 / RFU, TNKS2 / Fold change vs veh, TNKS2 / RFU, ZFP14 / Fold change vs veh, ZFP14 / RFU, ACTR2 / Fold change vs veh, ACTR2 / RFU, PPP3R1 / Fold change vs veh, PPP3R1 / RFU, PIK3R1 / Fold change vs veh, PIK3R1 / RFU, HNRNPA1 / Fold change vs veh, HNRNPA1 / RFU, RNF170 / Fold change vs veh, RNF170 / RFU, ZNF28 / Fold change vs veh, ZNF28 / RFU, RNGTT / Fold change vs veh, RNGTT / RFU, OGT / Fold change vs veh, OGT / RFU, BRD1 / Fold change vs veh, BRD1 / RFU, MARS / Fold change vs veh, MARS / RFU, ZNF655 / Fold change vs veh, ZNF655 / RFU, FAHD1 / Fold change vs veh, FAHD1 / RFU, BDP1 / Fold change vs veh, BDP1 / RFU, LRRCC1 / Fold change vs veh, LRRCC1 / RFU, ARID1A / Fold change vs veh, ARID1A / RFU, ZNF146 / Fold change vs veh, ZNF146 / RFU, ZNF330 / Fold change vs veh, ZNF330 / RFU, GPN3 / Fold change vs veh, GPN3 / RFU, C9orf123 / Fold change vs veh, C9orf123 / RFU, N4BP2L2 / Fold change vs veh, N4BP2L2 / RFU, ARFIP1 / Fold change vs veh, ARFIP1 / RFU, FAM179B / Fold change vs veh, FAM179B / RFU, BCL10 / Fold change vs veh, BCL10 / RFU, UHRF1BP1L / Fold change vs veh, UHRF1BP1L / RFU, BET1 / Fold change vs veh, BET1 / RFU, CNOT2 / Fold change vs veh, CNOT2 / RFU, ZNF268 / Fold change vs veh, ZNF268 / Fold change vs veh, ZNF507 / RFU, DGCR2 / Fold change vs veh, DGCR2 / RFU, WDSUB1 / Fold change vs veh, WDSUB1 / Fold change vs veh, HSP90B1 /// MIR3652 / RFU, ADSS / Fold change vs veh, ADSS / RFU, GK / Fold change vs veh, GK / RFU, ZNF148 / Fold change vs veh, ZNF148 / RFU, TAF9 / Fold change vs veh, TAF9 / RFU, SLC1A5 / Fold change vs veh, SLC1A5 / RFU, SLMO2 / Fold change vs veh, SLMO2 / RFU, ABCC4 / Fold change vs veh, ABCC4 / RFU, LOC101060439 /// RAP1B / Fold change vs veh, LOC101060439 /// RAP1B / RFU, RFX7 / Fold change vs veh, RFX7 / RFU, GTPBP10 / Fold change vs veh, GTPBP10 / RFU, CNEP1R1 / Fold change vs veh, CNEP1R1 / RFU, BIVM-ERCC5 /// ERCC5 / Fold change vs veh, BIVM-ERCC5 /// ERCC5 / RFU, ILF3 / Fold change vs veh, ILF3 / RFU 11762660_at / Fold change /veh 11762660_at / RFU VCAN (11757783_s_at) / Fold change /veh VCAN (11757783_s_at) / RFU DDX43 (11728927_at) / Fold change /veh DDX43 (11728927_at) / RFU KRT8 (11758188_x_at) / Fold change /veh KRT8 (11758188_x_at) / RFU NKD1 (11759106_at) / Fold change /veh NKD1 (11759106_at) / RFU SRD5A1 (11742802_a_at) / Fold change /veh SRD5A1 (11742802_a_at) / RFU TPSAB1 /// TPSB2 (11721975_s_at) / Fold change /veh TPSAB1 /// TPSB2 (11721975_s_at) / RFU GSTM3 (11746129_a_at) / Fold change /veh GSTM3 (11746129_a_at) / RFU IL23R (11737362_x_at) / Fold change /veh IL23R (11737362_x_at) / RFU TMEM51 (11727254_a_at) / Fold change /veh TMEM51 (11727254_a_at) / RFU PIWIL2 (11732686_x_at) / Fold change /veh PIWIL2 (11732686_x_at) / RFU ORM1 (11744905_x_at) / Fold change /veh ORM1 (11744905_x_at) / RFU CCDC152 (11743942_at) / Fold change /veh CCDC152 (11743942_at) / RFU ECM1 (11717891_a_at) / Fold change /veh ECM1 (11717891_a_at) / RFU IL23R (11748794_a_at) / Fold change /veh IL23R (11748794_a_at) / RFU TNFAIP8L3 (11732012_x_at) / Fold change /veh TNFAIP8L3 (11732012_x_at) / RFU MBOAT4 (11741988_at) / Fold change /veh MBOAT4 (11741988_at) / RFU 11764193_at / Fold change /veh 11764193_at / RFU TMEM53 (11763286_at) / Fold change /veh TMEM53 (11763286_at) / RFU MAGEB2 (11727129_at) / Fold change /veh MAGEB2 (11727129_at) / RFU TMEM200A (11744735_a_at) / Fold change /veh TMEM200A (11744735_a_at) / RFU CCDC152 (11751479_a_at) / Fold change /veh CCDC152 (11751479_a_at) / RFU FAM211A (11726209_a_at) / Fold change /veh FAM211A (11726209_a_at) / RFU RGS16 (11746705_a_at) / Fold change /veh RGS16 (11746705_a_at) / RFU VCAN (11755009_s_at) / Fold change /veh VCAN (11755009_s_at) / RFU RHOB (11743442_s_at) / Fold change /veh RHOB (11743442_s_at) / RFU RGS16 (11720943_a_at) / Fold change /veh RGS16 (11720943_a_at) / RFU RGS16 (11720944_at) / Fold change /veh RGS16 (11720944_at) / RFU, VPS4B / Fold change vs veh, VPS4B / RFU, CREB1 / Fold change vs veh, CREB1 / RFU, DNAJC13 / Fold change vs veh, DNAJC13 / RFU, GNAQ / Fold change vs veh, GNAQ / RFU, CDK5R1 / Fold change vs veh, CDK5R1 / RFU, ZRANB3 / Fold change vs veh, ZRANB3 / RFU, CUL4A / Fold change vs veh, CUL4A / RFU, CCNY / Fold change vs veh, CCNY / RFU, UFL1 / Fold change vs veh, UFL1 / RFU, COG3 / Fold change vs veh, COG3 / RFU, DIAPH2 / Fold change vs veh, DIAPH2 / RFU, SKA2 / Fold change vs veh, SKA2 / RFU, AFF3 / Fold change vs veh, AFF3 / RFU, LMF1 / Fold change vs veh, LMF1 / RFU, IPO11 / Fold change vs veh, IPO11 / RFU, DFFB / Fold change vs veh, DFFB / RFU, FOXP1 / Fold change vs veh, FOXP1 / RFU, CARD8 / Fold change vs veh, CARD8 / RFU, STRN3 / Fold change vs veh, STRN3 / RFU, ADK / Fold change vs veh, ADK / RFU, RASSF2 / Fold change vs veh, RASSF2 / RFU, WIPF1 / Fold change vs veh, WIPF1 / RFU, LARP1B / Fold change vs veh, LARP1B / RFU, RASA1 / Fold change vs veh, RASA1 / RFU, RB1 / Fold change vs veh, RB1 / RFU, PPFIA1 / Fold change vs veh, PPFIA1 / RFU, MAT2A / Fold change vs veh, MAT2A / RFU, CCT5 / Fold change vs veh, CCT5 / RFU, WDR92 / Fold change vs veh, WDR92 / RFU, CUX1 / Fold change vs veh, CUX1 / RFU, TTC7A / Fold change vs veh, TTC7A / RFU, TMEM135 / Fold change vs veh, TMEM135 / RFU, DEPTOR / Fold change vs veh, DEPTOR / RFU, CPM / Fold change vs veh, CPM / RFU, DNAJB6 / Fold change vs veh, DNAJB6 / RFU, CACNA2D3 / Fold change vs veh, CACNA2D3 / RFU, DTX4 / Fold change vs veh, DTX4 / RFU, TFCP2 / Fold change vs veh, TFCP2 / RFU, GMCL1 /// GMCL1P1 / Fold change vs veh, GMCL1 /// GMCL1P1 / RFU, AEBP2 / Fold change vs veh, AEBP2 / RFU, SNHG1 /// SNORD22 /// SNORD25 /// SNORD26 /// SNORD27 /// SNORD28 /// SNORD29 /// SNORD31 / Fold change vs veh, SNHG1 /// SNORD22 /// SNORD25 /// SNORD26 /// SNORD27 /// SNORD28 /// SNORD29 /// SNORD31 / Fold change (Aza/veh), C12orf56 (ProbeSet 11735607_a_at) / Fold change (ACY-1035/veh), C12orf56 (ProbeSet 11735607_a_at) / Fold change (Aza/veh), FGFR1OP (ProbeSet 11751329_s_at) / Fold change (ACY-1035/veh), FGFR1OP (ProbeSet 11751329_s_at) / Fold change (Aza/veh), VPS36 (ProbeSet 11739960_a_at) / Fold change (ACY-1035/veh), VPS36 (ProbeSet 11739960_a_at) / RFU SYPL1 (11715823_x_at) / Fold change /veh SYPL1 (11715823_x_at) / RFU IGFBP7 (11715501_s_at) / Fold change /veh IGFBP7 (11715501_s_at) / RFU REEP3 (11722064_at) / Fold change /veh REEP3 (11722064_at) / RFU IGLL1 (11728026_x_at) / Fold change /veh IGLL1 (11728026_x_at): dose or concentration left out as unconfirmed
Conditions: ProbeSet 11719185_x_at; LIST B

**Q.** For `Nc1ccc(-c2cccs2)cc1NC(=O)c1ccc2c(c1)cc(C1CC1)n2CCN1CCOCC1` [ACY-1035], which “RFU, N4BP2L2” value is on record?
**A.** 104.68 RFU
